The subject of one data set is Plutella xylostella. Description: insecticidal effect for Plutella xylostella (cabbage leaf dip). Format: in vivo. The note with it: 100 ppm, second-instar larvae, fifth day after, 24° C. As for the experimental part:
1) insecticidal effect for Plutella xylostella One 7 to 8-leave stage foliage leaf of cabbage was cut off and dipped in a pesticidal solution for a few seconds, which was prepared by dissolving 5 mg of test compound (represented by the compound Nos. in the above Examples) in 0.5 ml of acetone containing Tween 20 (trade name) and then diluting it to the prescribed concentration (100 ppm) with Dain water diluted 5000-fold. After drying the pesticidal solution, the leaf was put into an ice cream cup (180 ml), and ten second-instar larvae of Plutella xylostella were set free. The cup was left in a temperature-controlled breeding room (24° C.). On the fifth day after, the number of surviving Plutella xylostella was examined. The rate of dead pests was calculated by the following formula, and the result was shown in table 39. rate of dead pests (%)=(number of dead pests/number of test pests)×100

The test system of a further data set is Tetranychus urticae. As to the kind of experiment: acaricidal effect for Tetranychus urticae (spray on string bean). The note with it: 500 ppm, female imagoes, survivors counted on second and seventh day after treatment, 25° C. The data set is classed as in vivo. As for the experimental part:
2) acaricidal effect for Tetranychus urticae Ten female imagoes Tetranychus urticae were set free on a string bean wherein first leaves had just developed. On the following day, the pesticidal solution, which was prepared by dissolving 5 mg of test compound (represented by the compound Nos. in the above Examples) in 0.5 ml of acetone containing Tween 20 (trade name) and then diluting it to the prescribed concentration (500 ppm) with Dain water diluted 5000-fold, was sprayed with spray gun in the amounts wherein the pesticidal solution dripped. The string bean was left in a temperature-controlled breeding room (25° C.). On the second and seventh day after treatment, the number of surviving Tetranychus urticae was examined. The rate of decrease was calculated by the following formula, and the result was shown in table 40. rate of decrease (%)=(1−(S2/(5.59×(10+(10+S1)/2+S1))))×100 • S1; the number of surviving imagoes on the second day after S2; the number of surviving imagoes on the seventh day after […]

Structures are written as SMILES.

For orientation: melting point means the temperature of the solid-liquid transition. Consider `Cc1nc(-c2ccccc2F)cn1-c1ccc(COc2ncc(C(F)(F)F)cc2Cl)cc1` [I-63, 1-[4-[3-chloro-5-(trifluoromethyl)pyridin-2-yloxymethyl]phenyl]-4-(2-fluorophenyl)-2-methylimidazole], for which the melting point was found to be 109 °C.

Take `Cc1nc(-c2c(F)cccc2C(F)(F)F)nn1-c1ccc(COc2ncc(C(F)(F)F)cc2Cl)cc1` [T-133]: the “Rate of dead pests (%)” value in the data set on Plutella xylostella worked out at 95%. Besides, the “Rate of decrease (%)” value in the data set with Tetranychus urticae is reported as 99%.

The record behind these values is US20050009834A1, “Azole compounds, process for preparation of the same and use thereof” (priority 2001, published 2005).
